In this series the test system is cornea suture-induced neovascularization. The settings on record: for CNV Branching / CNV Length / CNV Area (~%): 6 eyes; for CNV Area (~%): percentage estimate of involved corneal circumference. How it is done:
For this study, New Zealand white rabbits at approximately 5 months old with no visible signs of ocular defects were selected. Suture placement was performed on Day 1. Prior to surgery, the right eye of each animal was dilated using a mydriatic agent (1% tropicamide), and the conjunctiva was flushed with approximately 10 mL benzalkonium chloride (Zephiran™) diluted in sterile water, U.S.P. to 1:10,000 (v/v). Saline (0.9%) was also used to flush the eye along with benzalkonium chloride. Animals were anesthetized with isoflurane/oxygen during the procedure. Hydration of the eyes was maintained by irrigation with saline solution, as needed. The procedure was conducted under a dissecting or surgical microscope. The cornea of the right eye was exposed using an eyelid speculum. The central corneal area was appropriately marked as considered necessary by the surgeon. […] The outer point of suture placement was chosen near the limbus (1-2 mm), and the inner suture point was chosen near the corneal center, equidistant from the limbus, to obtain standardized angiogenic responses. The left eye remained untreated.
The study design is shown below in Table 7:
Dose formulations were administered by subconjunctival injection to the sutured right eye of each animal of the Avastin control group (5 mg) on Days 1 and 7, at a dose volume of 200 μL/dose immediately post suture placement. Dose formulations were given three times daily (TID) for the group administered with suspension vehicle, 0.3% Axitinib, 0.3% Nintedanib Ethanesulfonate, or 0.3% Sorafenib Tosylate for a duration of 14 days. […] The dosing volume was one 35 μL drop per dose. After the dose was administered, the upper and lower eyelids were gently held together to prevent the loss of material and to distribute the dose across the eye.
Ocular imaging and neovascularization assessments were performed once pre-treatment, and also once on Days 7 and 14. A pre-anesthetic cocktail of Ketamine (15 mg/kg) and Dexmedetomidine (0.25 mg/kg) was administered subcutaneously, and the animals were maintained with isoflurane/oxygen mix prior to and during the procedure. Still images of the cornea were taken from both eyes (from the center of each eye, nasally and temporally). Images were evaluated qualitatively and quantitatively to assess the degree of corneal neovascularization (CNV), and to determine the area affected by CNV. The length of the vessel incursion was measured from the limbus to the distal end of the encroaching CNV using a digital micrometer (in millimeters) for each selected image. Qualitative assessments included the percentage estimate of involved corneal circumference (using multiple images as necessary), and vessel branching.

[1] abbreviates: topical TID for 14 days, study conclusion.

The values below come from US10154994B2, “Ophthalmic formulations of tyrosine kinase inhibitors, methods of use thereof, and preparation methods thereof” (Allgenesis Biotherapeutics Inc., priority 2015, dated 2018).

Counter-ions that a name gives are not always drawn. Like-named read-outs stand apart in the source and are kept apart here.

As to `CNC(=O)c1ccccc1Sc1ccc2c(/C=C/c3ccccn3)n[nH]c2c1` [Axitinib], for the setting “Day 7”, the “corneal neovascularization observed” value is recorded as “not observed”, the “CNV Branching” value is given as “very slight to moderate”, the “CNV Length” value was “approximately 0.5 mm” and the “CNV Area (~%)” value is around 20%. Besides, the “tolerability in the CNV study” value (topical TID for 14 days) is listed as “well-tolerated”. In addition, under setting [1], the “efficacy in preventing or slowing CNV progression” value is listed as “efficacious in preventing or slowing CNV progression”.

For `COC(=O)c1ccc2c(c1)NC(=O)/C2=C(\Nc1ccc(N(C)C(=O)CN2CCN(C)CC2)cc1)c1ccccc1` [Nintedanib Ethanesulfonate], where the note is “Day 7”, the “corneal neovascularization observed” value is given as “not observed”, the “efficacy compared with Avastin” value is on record as “comparable to one given Avastin”, the “CNV Branching” value is reported as “very slight to moderate” and the “CNV Length” value is “approximately 0.5 mm”. Moreover, the “CNV Area (~%)” value (Day 7) is given as around 20%. For the setting “Day 14”, the “corneal neovascularization observed” value is listed as “sparse” and the “CNV Branching” value is on record as “no branching”. For the same compound, the “efficacy compared with Avastin (vessel length, surface area and vessel branching; words)” value (Day 15) is “slightly more efficacious”. The “tolerability in the CNV study” value (rabbit, in vivo) was “well-tolerated”. For the same compound, for the setting “study conclusion”, the “efficacy versus Avastin in preventing or slowing CNV progression” value is given as “more efficacious, or at least comparable to Avastin”. Under setting [1], the “efficacy in preventing or slowing CNV progression” value was “efficacious in preventing or slowing CNV progression”.

On to `CNC(=O)c1cc(Oc2ccc(NC(=O)Nc3ccc(Cl)c(C(F)(F)F)c3)cc2)ccn1` [Sorafenib Tosylate], for which, under “Day 7 and Day 14”, the “corneal neovascularization observed” value is on record as “Slight corneal neovascularization”.

Regarding “Avastin: active control, 5 mg/eye by subconjunctival injection”, for the setting “Day 7”, the “CNV Branching” value is on record as 0, the “CNV Length” value is listed as 0 mm and the “CNV Area (~%)” value is 0%. Moreover, for the setting “Day 14”, the “corneal neovascularization observed” value was “minimal CNV”, the “CNV Branching” value came to 1, the “CNV Length” value stood at 0.45 mm and the “CNV Area (~%)” value is 13%. For the same compound, under “Pre”, the “CNV Branching” value was 0, the “CNV Length” value is reported as 0 mm and the “CNV Area (~%)” value is 0%.
